Results taken from US10927096B2, “Ester substituted ion channel blockers and methods for use” (Nocion Therapeutics, Inc., priority 2019, dated 2021).

Experiments:
NaV1.7 [1] = biological target: T1, NaV1.7 (Homo sapiens, UniProt Q15858); assay: Whole cell patch clamp, internal block of NaV1.7 current; format: cell-based; settings: % inhibition at 1 μM test concentration, compound in internal solution, manual whole cell patch clamp
T1 construct: expressed in transfected cells; host or cells: HEK293, tetracycline-inducible
Procedure: NaV1.7 was expressed upon induction with tetracycline. Cells were cultured in DMEM containing 10% dialyzed Fetal Bovine Serum (VWR, Radnor, Pa.), 1% Glutamax (VWR, Radnor, Pa.), 1% Penicillin-Streptomycin (VWR, Radnor, Pa.), 100 mg/L Hygromycin (Thermo Fisher Scientific, Waltham, Mass. and 5 mg/L Blasticidin (Alfa Aesar, Haverhill, Mass.). Cells were grown and maintained at 37° C. in a humidified environment containing 10% C02 in air. Cells were detached from the culture flask for passage and harvested using 0.05% Trypsin-EDTA (Thermo Fisher Scientific, Waltham, Mass.). To induce NaV1.7, cells were induced with tetracycline (0.1-1 μg/mL, IBI Scientific, Peosta, Iowa) the day before recording and plated onto 24-well plates. Cells were washed with DPBS (VWR, Radnor, Pa.), trypsinized and then triturated five times in 10 mL of growth media to break apart cell aggregates. For one 24-well plate, 2 mL of cell suspension was mixed with 23 mL of fresh growth media and 0.1-1 μg/mL tetracycline added. 1 ml of mixed media with cells was then added to each well of a 24-well plate, with a 12 mm coverslip already placed in the bottom of the well. Cells were then incubated in 37° C. and 10% CO2 overnight.
The intracellular solution contained the following (in mM) CsCl 135, NaCl 10, EGTA 10, HEPES 10, MgCl2 2, adjusted to pH 7.2 with CsOH. The external solution was a normal Ringer solution containing (in mM) NaCl 155, HEPES 10, glucose 10, KCl 3.5, CaCl2 1.5, MgCl2 1 adjusted to pH 7.4 with NaOH. CsCl is from Alfa Aesar, Haverhill, Mass. All other chemicals are from Sigma-Aldrich, St. Louis, Mo. In order to test the degree of internal block by test compounds the compounds were dissolved in internal solution at the indicated test concentration. […] In order to test the degree of external block by test compounds the compounds were dissolved in external solution at the indicated test concentration.
18-24 hours after cells were induced with tetracycline, coverslips were placed into a chamber filled with Normal Ringer solution at room temperature and the chamber placed on a microscope. Pipettes were pulled from borosilicate glass on a P97 puller (Sutter Instrument, Novato, Calif.) and polished with a MF-830 Microforge (Narishige International USA, Inc, Amityville, N.Y.) to have a resistance of 1.5-2.5 MΩ when filled with CsCl internal solution at room temperature. Healthy cells (those that are round and translucent with no visible blemishes) were chosen for seal formation. A seal was formed between the pipette and the cell, and a brief pulse of suction was used to “break in” and establish the whole-cell configuration. The membrane potential was held at −100 mV before the voltage protocol began. Only cells with series resistance between 1.5-5 MΩ were retained for analysis. The voltage protocol was as follows: Cells were held at −100 mV for 12 ms followed by a hyperpolarizing step to −105 mV for 12 ms to monitor the leak. Cells were then stepped back to −100 mV for 40 ms. Cells were then depolarized to −20 mV for 10 ms and then returned to −100 mV for 26 ms (The FIGURE).
Once the recording was started, the voltage protocol was run at 30 second intervals for 5 minutes to get a stable baseline. This was followed by four 30-second periods of 5 Hz stimulation of the same voltage protocol separated by 1 minute of rest which was then followed by 0.33 Hz stimulation after the last train. Currents were recorded using PatchMaster software with Heka EPC10 (HEKA Electronics, Lambrecht, Germany). Only cells with inward current amplitudes at −20 mV between 400 pA and 4 nA were accepted. In addition, cells having leak currents greater than 10% of their current amplitudes were discarded.
The data was plotted using the Patchmaster software (HEKA Electronics, Lambrecht, Germany) and analyzed by plotting the minimum current during the voltage step to −20 mV (peak inward current) as a function of time. […]

[2] = PAMPA membrane permeability assay; format: physicochemical; settings: pH 7.4 buffer, GIT lipid, 4 hours incubation
Procedure: The PAMPA assay (pION, Inc., Woburn Mass.) was used to determine the ability of compounds of the invention to cross an artificial lipid membrane by passive diffusion. Test compounds were dissolved in DMSO (10 mM) and diluted 200-fold in buffer (pION Inc., pH 7.4) to provide 50 uM stock solutions. Buffer (150 μL) was added to a UV blank plate and stock solutions (150 μL) were transferred to a UV reference plate. The blank and reference spectrum were read using a spectrophotometer. Stock solutions (200 μL) were added to the donor plate of the PAMPA sandwich plate and an accept plate painted with GIT lipid (pION Inc, 5 μL) was placed on top. Buffer (200 μL) was added to the acceptor plate and the PAMPA sandwich plate was incubated for 4 hours. Aliquots (150 μL) from the acceptor plate were added to a UV plate and read as acceptor spectrum. Aliquots (150 μL) of the donor solutions were added to a UV analysis plate and read as donor spectrum. The permeability coefficient of test compounds was calculated using PAMPA Explorer™ software (version 3.5.0.4) based on the AUC of the reference plate, the donor plate, and the acceptor plate.
The PAMPA permeability results (10^−6 cm/s) of representative compounds are reported as “+” (<0.1 10^−6 cm/s), “++” (0.1-2.0 10^−6 cm/s), “+++” (2.0-10.010^−6 cm/s) or “++++” (>10.0 10^−6 cm/s).

NaV1.7 [3] = biological target: T1, NaV1.7; assay: Automated patch clamp (Qube 384), internal block of NaV1.7 in HEK293 cells; format: cell-based; settings: compound in internal solution, read-out: NaV1.7 Intracellular Inhibition
Procedure: NaV1.7 was expressed in HEK293 cells upon induction with tetracycline. Cells were cultured in DMEM containing 10% dialyzed Fetal Bovine Serum (VWR, Radnor, Pa.), 1% Glutamax (VWR, Radnor, Pa.), 1% Penicillin-Streptomycin (VWR, Radnor, Pa.), 100 mg/L Hygromycin (Thermo Fisher Scientific, Waltham, Mass. and 5 mg/L Blasticidin (Alfa Aesar, Haverhill, Mass.). Cells were grown and maintained at 37° C. in a humidified environment containing 10% CO2 in air. Cells were detached from the culture flask for passage and harvested using 0.05% Trypsin-EDTA (Thermo Fisher Scientific, Waltham, Mass.). To induce NaV1.7, cells were induced with tetracycline (0.1-1 μg/mL, IBI Scientific, Peosta, Iowa) the day before recording.
Before experiments, cells were washed with DPBS (VWR, Radnor, Pa.), digested with Detachin (VWR Radnor, Pa.) and then triturated 10 times in CHO Serum-Free Media (VWR Radnor, Pa.) to resuspend the cells and to break apart cell aggregates. Cells were counted and the final concentration was set at 2-5 million cells per mL.
The intracellular solution contained the following: 140 mM CsF, 1 mM/5 mM EGTA/CsOH, 10 mM HEPES, 10 mM NaCl, adjusted to pH 7.3 with CsOH, and osmolality to 320 with sucrose. The external solution contained the following: 145 mM NaCl, 4 mM KCl, 1 mM MgCl2, 2 mM CaCl2, 10 mM HEPES, 10 mM Glucose, adjusted to pH 7.4 with CsOH and osmolality to 305 with sucrose. All chemicals are from Sigma-Aldrich, St. Louis, Mo. In order to test the degree of internal block by test compounds, the compounds were dissolved in internal solution at the indicated test concentration. […] In order to test the degree of external block by test compounds the compounds were dissolved in external solution at the indicated test concentration.
Automated Patch Clamps were performed on Qube 384 (Sophion Bioscience, Woburn Mass.) with multihole Qchips at a temperature setting of 22 degrees. The whole cells configuration was formed with default Qube seal and break-in parameter. The membrane potential was held at −100 mV before the voltage protocol began. Two voltage protocols were followed.
Step 1: Cells were held at −100 mV with a depolarized pulse to −20 mV for 10 ms, the interval was set at 5 s. Currents were corrected by default leak subtraction from every pulse. The duration was set at 5 mins.
Step 2: Cells were held at −100 mV with a depolarized pulse to −20 mV for 10 ms. The frequency was 5 Hz. Currents were corrected by leak subtraction calculated before step 2. The duration was set at 4 mins.
After Step 2, the Qchip was removed from the recording chamber. The internal solution was changed with solutions containing test compounds. Qchips were held at −100 mV without pulsing after being replaced in the recording chamber. The total solution switching time was 8 minutes. After the internal solution exchange, Cells were recorded and step 2 for repeated for 10 minutes.
Data analysis was performed by Sophion Analyzer. Cells were filtered with minimum 50 MOhm seal resistance and minimum 5 nA starting current. The rundown of the currents was corrected with control cells (Non-Drug). The remaining was calculated by averaging last 3 points in the end of experiments. The base line was calculated as the average of last 3 points of Step 2. IC50 curves were plotted with DR-plots/Hill function (a dose-response plot with a Hill fit).
Representative examples of the invention were tested for intracellular inhibition of NaV 1.7 in the automated patch clamp assay. Activity Range is reported as IC50: “++++” (<1 μM), “+++” (1-3 μM), “++” (3-10 μM) or “+” (10-30 μM).

T1 sequence (Q15858 whole entry): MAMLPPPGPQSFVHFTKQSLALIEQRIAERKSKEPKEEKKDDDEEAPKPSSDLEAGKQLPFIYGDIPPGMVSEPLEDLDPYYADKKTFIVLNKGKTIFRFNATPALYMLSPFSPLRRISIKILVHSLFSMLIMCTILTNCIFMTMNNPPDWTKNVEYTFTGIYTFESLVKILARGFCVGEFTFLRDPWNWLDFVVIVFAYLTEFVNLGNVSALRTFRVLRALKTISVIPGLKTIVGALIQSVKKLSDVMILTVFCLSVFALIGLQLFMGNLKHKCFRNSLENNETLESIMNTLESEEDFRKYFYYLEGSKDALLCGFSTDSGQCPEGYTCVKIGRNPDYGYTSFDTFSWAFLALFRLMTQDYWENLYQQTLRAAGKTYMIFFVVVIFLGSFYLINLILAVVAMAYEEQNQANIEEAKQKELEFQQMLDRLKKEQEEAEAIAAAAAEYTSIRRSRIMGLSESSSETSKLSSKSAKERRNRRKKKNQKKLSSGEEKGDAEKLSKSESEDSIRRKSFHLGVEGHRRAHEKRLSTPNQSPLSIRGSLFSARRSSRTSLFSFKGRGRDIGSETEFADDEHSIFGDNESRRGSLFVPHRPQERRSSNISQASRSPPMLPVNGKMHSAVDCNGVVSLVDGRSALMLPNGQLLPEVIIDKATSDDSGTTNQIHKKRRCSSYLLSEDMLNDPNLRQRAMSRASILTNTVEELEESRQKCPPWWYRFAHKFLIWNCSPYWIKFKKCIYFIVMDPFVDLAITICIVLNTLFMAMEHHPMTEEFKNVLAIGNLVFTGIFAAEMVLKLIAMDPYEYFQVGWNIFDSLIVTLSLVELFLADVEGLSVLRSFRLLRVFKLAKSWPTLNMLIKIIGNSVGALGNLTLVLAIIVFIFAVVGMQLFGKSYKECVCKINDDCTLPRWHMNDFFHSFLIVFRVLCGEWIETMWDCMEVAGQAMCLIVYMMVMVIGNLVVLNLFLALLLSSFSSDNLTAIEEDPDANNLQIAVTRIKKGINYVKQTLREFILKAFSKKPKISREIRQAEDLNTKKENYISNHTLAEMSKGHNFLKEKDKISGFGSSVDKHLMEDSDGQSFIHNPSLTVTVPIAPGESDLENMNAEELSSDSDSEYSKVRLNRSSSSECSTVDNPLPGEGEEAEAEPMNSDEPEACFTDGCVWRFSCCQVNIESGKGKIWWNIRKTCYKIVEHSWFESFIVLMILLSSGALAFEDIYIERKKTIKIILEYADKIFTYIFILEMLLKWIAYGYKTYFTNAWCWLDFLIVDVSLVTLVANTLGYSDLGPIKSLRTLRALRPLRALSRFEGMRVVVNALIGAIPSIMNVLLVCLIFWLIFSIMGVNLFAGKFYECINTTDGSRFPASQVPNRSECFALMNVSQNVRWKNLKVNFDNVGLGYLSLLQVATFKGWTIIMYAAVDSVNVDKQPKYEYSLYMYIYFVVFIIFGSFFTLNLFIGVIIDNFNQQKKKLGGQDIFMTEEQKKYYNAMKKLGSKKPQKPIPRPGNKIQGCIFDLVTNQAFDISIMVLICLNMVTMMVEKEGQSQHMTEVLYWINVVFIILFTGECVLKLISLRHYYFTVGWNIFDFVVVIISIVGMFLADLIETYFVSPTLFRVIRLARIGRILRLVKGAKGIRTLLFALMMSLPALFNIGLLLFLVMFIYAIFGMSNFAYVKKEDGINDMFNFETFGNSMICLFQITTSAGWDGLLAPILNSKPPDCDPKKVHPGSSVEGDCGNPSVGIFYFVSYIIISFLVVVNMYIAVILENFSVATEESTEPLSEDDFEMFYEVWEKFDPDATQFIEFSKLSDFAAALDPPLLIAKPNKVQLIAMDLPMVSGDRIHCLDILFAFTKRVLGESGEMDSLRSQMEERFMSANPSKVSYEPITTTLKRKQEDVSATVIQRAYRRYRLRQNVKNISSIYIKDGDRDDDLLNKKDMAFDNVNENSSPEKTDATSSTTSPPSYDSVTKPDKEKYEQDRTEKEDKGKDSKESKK

SMILES	NaV1.7 Intracellular Inhibition (NaV1.7 [1])	PAMPA (10^−6 cm/s) [2]	IC50 (NaV1.7 [3]) [nM]
CC[N+]1(CC(=O)Nc2c(C)cccc2C(=O)OC)CCCC(C(=O)N(C)C)C1.[I-] (centres unmarked) [Compound 44]	+ (<30%)	+ (<0.1 10^−6 cm/s)	–
COC(=O)c1cccc(C)c1NC(=O)C[N+]1(Cc2ccccc2)CCCC(C(=O)OC2CCCC2)C1.[Br-] (centres unmarked) [Compound 21]	–	+ (<0.1 10^−6 cm/s)	3000 to 10000
CC[N+]1(CC(=O)Nc2c(C)cccc2C(=O)OC)CCCC(C(=O)NCC(C)C)C1.[I-] (centres unmarked) [Compound 48]	–	+ (<0.1 10^−6 cm/s)	1000 to 3000
CCN(CC)C(=O)C1CCC[N+](CC)(CC(=O)Nc2c(C)cccc2C(=O)OC)C1.[I-] (centres unmarked) [Compound 53]	–	+ (<0.1 10^−6 cm/s)	1000 to 3000
CCCOC(=O)C1CCC[N+](CC(=O)Nc2c(C)cccc2C(=O)OC)(Cc2ccccc2)C1 (mixture of isomers) [Compound 18]	–	+ (<0.1 10^−6 cm/s)	1000 to 3000
CC[N+]1(CC(=O)Nc2c(C)cccc2C(=O)OC)CCCC(C(=O)N2CCCCCC2)C1 (mixture of isomers) [Compound 51]	–	+ (<0.1 10^−6 cm/s)	1000 to 3000
CC[N+]1(CC(=O)Nc2c(C)cccc2C(=O)OC)CCCC(C(=O)OC2CCCC2)C1.[I-] (centres unmarked) [Compound 22]	–	+ (<0.1 10^−6 cm/s)	1000 to 3000
CCOC(=O)c1cccc(C)c1NC(=O)C[n+]1cccn1C1CCCCC1.[Br-] [Compound 70]	++ (70-30%)	+ (<0.1 10^−6 cm/s)	–
COC(=O)c1cccc(C)c1NC(=O)C[N+]1(Cc2ccccc2)CCCC(C(=O)OCC(C)C)C1 (mixture of isomers) [Compound 20]	–	+ (<0.1 10^−6 cm/s)	1000 to 3000
CC[N+]1(CC(=O)Nc2c(C)cccc2C(=O)OC)CCCC(C(=O)NC(C)C)C1.[I-] (centres unmarked) [Compound 50]	–	+ (<0.1 10^−6 cm/s)	1000 to 3000
COC(=O)c1cccc(C)c1NC(=O)C[N+]1(Cc2ccccc2)CCCC(C(=O)N2CCCCC2)C1 (mixture of isomers) [Compound 37]	–	+ (<0.1 10^−6 cm/s)	1000 to 3000
CCCN(CCC)C(=O)C1CCC[N+](CC)(CC(=O)Nc2c(C)cccc2C(=O)OC)C1 (mixture of isomers) [Compound 47]	–	+ (<0.1 10^−6 cm/s)	–
COC(=O)c1cccc(C)c1NC(=O)C[N+]1(Cc2ccccc2)CCCC(C(=O)NC2CCCCC2)C1 (mixture of isomers) [Compound 42]	–	+ (<0.1 10^−6 cm/s)	1000 to 3000
COC(=O)c1cccc(C)c1NC(=O)C[N+]1(Cc2ccccc2)CCCC(C(=O)OC2CCCCC2)C1 (mixture of isomers) [Compound 17]	–	+++ (2.0-10.010^−6 cm/s)	3000 to 10000
CC[N+]1(CC(=O)Nc2c(C)cccc2C(=O)OC)CCCC(C(=O)NC2CCCC2)C1 (mixture of isomers) [Compound 52]	–	+ (<0.1 10^−6 cm/s)	1000 to 3000
COC(=O)c1cccc(C)c1NC(=O)C[N+]1(Cc2ccccc2)CCCC(C(=O)OC(C)C)C1 (centres unmarked) [Compound 19]	–	–	< 1000
CCOC(=O)c1cccc(C)c1NC(=O)C[n+]1cccc(C(=O)OC2CCCC2)c1.[Br-] [Compound 68]	–	+++ (2.0-10.010^−6 cm/s)	3000 to 10000
